Assay results taken from US6989371B1, “Bombesin analogs for treatment of cancer” (Dabur Research Foundation, priority 1996, dated 2006).
Non-standard residues stand in square brackets, D forms with d. Residues, ends and D or L forms follow the SMILES beside them. Aib = CC(C)(N)C(=O)O

Columns and labels:
Assay in all cases: MTT cytotoxicity assay, 72 hours (Example 13)
Type in all cases: cell-based, human
HT-29 (colon) = system: HT-29 (colon)
Experimental: (§1) The cytotoxic activity of other synthesized bombesin analogs was tested on eight human tumor cell lines namely HT-29, SW620, PTC (all colon), PA-1 (ovary), A549 (lung), HBL100(breast), MOLT-4 (leukemia) and DU145 (prostate). The tumor cells were collected at exponential growth phase and resuspended in medium (1.5×10^6) cells/ml in RPMI 1640 containing 10% FBS). 150 μl of medium was added to the wells of a 96-well tissue culture plate (Nunc, Denmark) followed by 30 μl of cell suspension. The plate was left in incubator (37° C., 5% CO2 overnight. 20 μl of the peptide (10^−7×10^×10M concentration) was added to marked wells of the 96-well plate. Each concentration was plated in cells served as blanks. A total volume of 200 μl was ensured in each well and plate was left in incubator (37° C., 5% CO2). After 72 hours of incubation an MTT assay was performed and percentage cytotoxicity was calculated with respect to control cells. Following tables show the cytotoxicity achieved on various cell lines at different concentrations.

PTC (colon) = system: PTC (colon)
Experimental: as §1

MOLT-4 (leukemia) = system: MOLT-4 (leukemia)
Experimental: as §1

PA-1 (ovary) = system: PA-1 (ovary)
Experimental: as §1

DU145 (prostate) = system: DU145 (prostate)
Experimental: as §1

HBL100 (breast) = settings: HBL
Experimental: as §1

A549 (lung) = system: A549 (lung)
Experimental: as §1

SW620 (colon) = system: SW620 (colon)
Experimental: as §1

Row | SMILES | Percent Cytotoxicity (HT-29 (colon); HT29, 10 nM) [%] | Percent Cytotoxicity (HT-29 (colon); HT29, 100 nM) | Percent Cytotoxicity (PTC (colon); 1 nM) [%] | Percent Cytotoxicity (PTC (colon); 10 nM) [%] | Percent Cytotoxicity (PTC (colon); 100 nM) [%] | Percent Cytotoxicity (PTC (colon); 100 PM) [%] | Percent Cytotoxicity (MOLT-4 (leukemia); MOLT4, 1 nM) | Percent Cytotoxicity (MOLT-4 (leukemia); MOLT4, 10 nM) | Percent Cytotoxicity (MOLT-4 (leukemia); MOLT4, 100 nM) | Percent Cytotoxicity (PA-1 (ovary); PA-1, 1 nM) [%] | Percent Cytotoxicity (PA-1 (ovary); PA-1, 10 nM) [%] | Percent Cytotoxicity (PA-1 (ovary); PA-1, 100 nM) [%] | Percent Cytotoxicity (PA-1 (ovary); PA-1, 100 PM) [%] | Percent Cytotoxicity (DU145 (prostate); DU145, 10 nM) | Percent Cytotoxicity (DU145 (prostate); DU145, 100 nM) | Percent Cytotoxicity (HBL100 (breast); 1 nM) [%] | Percent Cytotoxicity (HBL100 (breast); 10 nM) [%] | Percent Cytotoxicity (HBL100 (breast); 100 nM) [%] | Percent Cytotoxicity (HBL100 (breast); 100 PM) | Percent Cytotoxicity (A549 (lung); A549, 10 nM) [%] | further results
1 | CCCC(CCC)(NC(=O)[C@@H](NC(=O)[C@H](C)NC(=O)[C@@H](Cc1c[nH]c2ccccc12)NC(=O)[C@H](CCC(N)=O)NC(=O)[C@H](N)Cc1ccccc1)C(C)C)C(=O)N[C@@H](Cc1c[nH]cn1)C(=O)N[C@@H](CC(C)C)C(N)=O [SEQ ID: 8, D-Phe-Gln-D-Trp-Ala-Val-Dpg-His-Leu-NH2] | 18.9 ± 4.2 | 34.8 ± 4.2% | 12.5 ± 1.7 | 5.4 ± 1.7 | 8.7 ± 2.1 | 12.3 ± 1.9 | 9.3 ± 0.2% | 12.8 ± 3.3% | 2.6 ± 0.1% | 23.8 ± 4.2 | 20.4 ± 3.0 | 10.4 ± 3.7 | 23.3 ± 5.5 | 22.5 ± 2.2% | 19.1 ± 2.1% | 12.2 ± 1.9 | 14.4 ± 2.1 | 11.9 ± 2.1 | 12.1 ± 1.9% | 20.7 ± 2.2 | Percent Cytotoxicity (HT-29 (colon); HT29, 1 nM): 34.7 ± 3.3%; Percent Cytotoxicity (HT-29 (colon); HT29, 100 PM): 21.4 ± 3.1%; Percent Cytotoxicity (MOLT-4 (leukemia); MOLT4, 100 PM): 16.6 ± 3.1%; Percent Cytotoxicity (DU145 (prostate); DU145, 1 nM): 21.4 ± 6.2%; Percent Cytotoxicity (DU145 (prostate); DU145, 100 PM): 28.1 ± 3.5%; Percent Cytotoxicity (A549 (lung); A549, 1 nM): 19.7 ± 3.1%; Percent Cytotoxicity (A549 (lung); A549, 100 nM): 21.7 ± 3.3%; Percent Cytotoxicity (A549 (lung); A549, 100 PM): 17.0 ± 2.7%; Percent Cytotoxicity (SW620 (colon); SW620, 1 nM): 20.6 ± 3.9%; Percent Cytotoxicity (SW620 (colon); SW620, 10 nM): 33.0 ± 3.8%; Percent Cytotoxicity (SW620 (colon); SW620, 100 nM): 29.4 ± 2.9%; Percent Cytotoxicity (SW620 (colon); SW620, 100 PM): 20.6 ± 3.9%
2 | CC[C@H](C)[C@H](NC(=O)[C@H](Cc1c[nH]cn1)NC(=O)CNC(=O)[C@@H](NC(=O)C(C)(C)NC(=O)[C@H](Cc1c[nH]c2ccccc12)NC(=O)[C@H](CCC(N)=O)NC(=O)[C@H](N)Cc1ccccc1)C(C)C)C(N)=O [SEQ ID: 6, D-Phe-Gln-Trp-Aib-Val-Gly-His-Ile-NH2] (H-[dF]QW[Aib]VGHI-NH2; N-terminus assumed) | 6.8 ± 0.7 | NIL | 9.1 ± 0.7 | 10.4 ± 0.8 | 24.7 ± 5.2 | 10.1 ± 0.6 | 0.8 ± 0.1% | 20.4 ± 4.3% | NIL | 7.4 ± 1.0 | 8.7 ± 1.9 | 9.2 ± 1.0 | 11.1 ± 2.9 | 16.6% | 13.7 ± 0.9% | 1.2 ± 0.3 | 6.0 ± 0.4 | 17.0 ± 0.5 | NIL | 3.2 ± 0.1 | Percent Cytotoxicity (HT-29 (colon); HT29, 1 nM): 26.7 ± 4.2%; Percent Cytotoxicity (HT-29 (colon); HT29, 100 PM): 16.8 ± 0.5%; Percent Cytotoxicity (MOLT-4 (leukemia); MOLT4, 100 PM): 11.0 ± 0.6%; Percent Cytotoxicity (DU145 (prostate); DU145, 1 nM): 3.9 ± 5.2%; Percent Cytotoxicity (DU145 (prostate); DU145, 100 PM): 12.1 ± 0.8%; Percent Cytotoxicity (A549 (lung); A549, 1 nM): 13.0 ± 0.8%; Percent Cytotoxicity (A549 (lung); A549, 100 nM): 1.9 ± 0.6%; Percent Cytotoxicity (A549 (lung); A549, 100 PM): 12.4 ± 0.7%; Percent Cytotoxicity (SW620 (colon); SW620, 1 nM): 33.5 ± 5.2%; Percent Cytotoxicity (SW620 (colon); SW620, 10 nM): 38.1 ± 7.3%; Percent Cytotoxicity (SW620 (colon); SW620, 100 nM): 23.5 ± 5.1%; Percent Cytotoxicity (SW620 (colon); SW620, 100 PM): 24.8 ± 4.2%
3 | CC(C)C[C@H](NC(=O)[C@H](Cc1c[nH]cn1)NC(=O)CNC(=O)[C@@H](NC(=O)C(C)(C)NC(=O)[C@H](Cc1c[nH]c2ccccc12)NC(=O)[C@H](CCC(N)=O)NC(=O)[C@H](N)Cc1ccccc1)C(C)C)C(N)=O [SEQ ID: 4, D-Phe-Gln-Trp-Aib-Val-Gly-His-Leu-NH2] (H-[dF]QW[Aib]VGHL-NH2; N-terminus assumed) | 38.9 ± 7.3 | 38.6 ± 5.3% | 8.7 ± 1.5 | 2.1 ± 0.2 | 9.8 ± 1.7 | 14.9 ± 1.1 | 19.3 ± 1.8% | 28.7 ± 4.2% | 16.2 ± 0.6% | 16.2 ± 2.9 | 4.3 ± 0.2 | 2.3 ± 2.9 | 12.6 ± 2.9 | 23.4 ± 3.3% | 24.9 ± 3.2% | 30.6 ± 4.2 | 33.2 ± 5.2 | 25.0 ± 3.1 | 33.0 ± 3.6% | 20.6 ± 1.9 | Percent Cytotoxicity (HT-29 (colon); HT29, 1 nM): 39.6 ± 4.3%; Percent Cytotoxicity (HT-29 (colon); HT29, 100 PM): 43.3 ± 4.4%; Percent Cytotoxicity (MOLT-4 (leukemia); MOLT4, 100 PM): 28.5 ± 4.8%; Percent Cytotoxicity (DU145 (prostate); DU145, 1 nM): 22.8 ± 4.1%; Percent Cytotoxicity (DU145 (prostate); DU145, 100 PM): 23.2 ± 3.7%; Percent Cytotoxicity (A549 (lung); A549, 1 nM): 22.7 ± 2.9%; Percent Cytotoxicity (A549 (lung); A549, 100 nM): 20.0 ± 2.2%; Percent Cytotoxicity (A549 (lung); A549, 100 PM): 20.7 ± 4.2%; Percent Cytotoxicity (SW620 (colon); SW620, 1 nM): 27.8 ± 2.8%; Percent Cytotoxicity (SW620 (colon); SW620, 10 nM): 23.2 ± 2.0%; Percent Cytotoxicity (SW620 (colon); SW620, 100 nM): 34.3 ± 4.2%; Percent Cytotoxicity (SW620 (colon); SW620, 100 PM): 30.4 ± 3.2%
4 | CC[C@H](C)[C@H](NC(=O)[C@H](Cc1c[nH]cn1)NC(=O)C(C)(C)NC(=O)[C@@H](NC(=O)[C@H](C)NC(=O)[C@H](Cc1c[nH]c2ccccc12)NC(=O)[C@H](CCC(N)=O)NC(=O)[C@H](N)Cc1ccccc1)C(C)C)C(N)=O [SEQ ID: 7, D-Phe-Gln-Trp-Ala-Val-Aib-His-Ile-NH2] (H-[dF]QWAV[Aib]HI-NH2; N-terminus assumed) | 28.2 ± 2.8 | 15.5 ± 1.9% | 12.4 ± 2.1 | 7.6 ± 0.7 | 9.3 ± 1.8 | 8.2 ± 0.9 | NIL | NIL | 13.1 ± 0.3% | 25.6 ± 2.9 | 22.7 ± 3.4 | 9.6 ± 4.1 | 24.5 ± 4.2 | NIL | NIL | 12.0 ± 0.7 | 7.0 ± 0.7 | 16.1 ± 3.9 | 4.0 ± 0.6% | 17.9 ± 0.9 | Percent Cytotoxicity (A549 (lung); A549, 100 nM): 6.7 ± 2.0%; Percent Cytotoxicity (SW620 (colon); SW620, 1 nM): 32.0 ± 5.8%; Percent Cytotoxicity (SW620 (colon); SW620, 10 nM): 20.8 ± 1.9%; Percent Cytotoxicity (SW620 (colon); SW620, 100 nM): 25.4 ± 2.9%; Percent Cytotoxicity (SW620 (colon); SW620, 100 PM): 33.6 ± 5.8%
